Results as given in PubChem BioAssay (NCI).
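Tested at 5 concentrations; 48 h exposure; 96-well plates; endpoints linearly interpolated, else capped at highest concentration. Definition used: TGI = concentration required for complete inhibition of growth.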

What was measured:
Test in all cases: inhibition of tumour cell growth, NCI panel, 48 h
[1] = tested on: MDA-MB-435
[2] = tested on: SK-OV-3 ovarian
[3] = tested on: MCF7 breast
[4] = tested on: 786-0 renal
[5] = tested on: PC-3 prostate
[6] = tested on: MALME-3M melanoma
[7] = tested on: IGROV1 ovarian
[8] = tested on: U251 CNS
[9] = tested on: M14 melanoma
[10] = tested on: OVCAR-4 ovarian
[11] = tested on: LOX IMVI melanoma
[12] = tested on: NCI/ADR-RES ovarian
[13] = tested on: TK-10 renal
[14] = tested on: COLO 205 colon
[15] = tested on: SNB-19 CNS
[16] = tested on: SK-MEL-28 melanoma
[17] = tested on: SR leukemia
[18] = tested on: NCI-H23 lung
[19] = tested on: K-562 leukemia
[20] = tested on: MOLT-4 leukemia
[21] = tested on: DU-145 prostate
[22] = tested on: HCC-2998 colon
[23] = tested on: RPMI-8226 leukemia
[24] = tested on: MDA-MB-231 breast
[25] = tested on: OVCAR-3 ovarian
[26] = tested on: HCT-116 colon
[27] = tested on: NCI-H460 lung
[28] = tested on: OVCAR-5 ovarian
[29] = tested on: RXF 393 renal
[30] = tested on: KM12 colon
[31] = tested on: SN12C renal
[32] = tested on: HS 578T breast
[33] = tested on: UO-31 renal
[34] = tested on: ACHN renal
[35] = tested on: MDA-N
[36] = tested on: SF-295 CNS
[37] = tested on: EKVX NSCLC
[38] = tested on: CAKI-1 renal
[39] = tested on: SW-620 colon
[40] = tested on: CCRF-CEM leukemia
[41] = tested on: A498 renal
[42] = tested on: SF-539 CNS
[43] = tested on: OVCAR-8 ovarian
[44] = tested on: T-47D breast
[45] = tested on: NCI-H522 lung
[46] = tested on: UACC-257 melanoma
[47] = tested on: UACC-62 melanoma
[48] = tested on: HT29 colon
[49] = tested on: SK-MEL-2 melanoma
[50] = tested on: HL-60(TB) leukemia
[51] = tested on: HOP-62 NSCLC
[52] = tested on: BT-549 breast
[53] = tested on: HCT-15 colon
[54] = tested on: SK-MEL-5 melanoma
[55] = tested on: A549 NSCLC
[56] = tested on: SNB-75 CNS
[57] = tested on: NCI-H226 lung
[58] = tested on: SF-268 CNS
[59] = tested on: HOP-92 NSCLC

## CCCCNC(=O)c1cc(S(=O)(=O)n2cc[nH]c2=O)c(SC)cc1Cl
[1]
  TGI: > 100 µM
[2]
  TGI: > 100 µM
[3]
  TGI: > 100 µM
[4]
  TGI: > 100 µM
[5]
  TGI: > 100 µM
[6]
  TGI: > 100 µM
[7]
  TGI: > 100 µM
[8]
  TGI: > 100 µM
[9]
  TGI: > 100 µM
[10]
  TGI: > 100 µM
[11]
  TGI: > 100 µM
[12]
  TGI: > 100 µM
[13]
  TGI: > 100 µM
[14]
  TGI: > 100 µM
[15]
  TGI: > 100 µM
[16]
  TGI: > 100 µM
[17]
  TGI: > 100 µM
[18]
  TGI: > 100 µM
[19]
  TGI: > 100 µM
[20]
  TGI: > 100 µM
[21]
  TGI: > 100 µM
[22]
  TGI: > 100 µM
[23]
  TGI: > 100 µM
[24]
  TGI: > 100 µM
[25]
  TGI: > 100 µM
[26]
  TGI: > 100 µM
[27]
  TGI: > 100 µM
[28]
  TGI: > 100 µM
[29]
  TGI: > 100 µM
[30]
  TGI: > 100 µM
[31]
  TGI: > 100 µM
[32]
  TGI: > 100 µM
[33]
  TGI: > 100 µM
[34]
  TGI: > 100 µM
[35]
  TGI: > 100 µM
[36]
  TGI: > 100 µM
[37]
  TGI: > 100 µM
[38]
  TGI: > 100 µM
[39]
  TGI: > 100 µM
[40]
  TGI: > 100 µM
[41]
  TGI: 97 µM
[42]
  TGI: > 100 µM
[43]
  TGI: > 100 µM
[44]
  TGI: > 100 µM
[45]
  TGI: > 100 µM
[46]
  TGI: > 100 µM
[47]
  TGI: > 100 µM
[48]
  TGI: > 100 µM
[49]
  TGI: > 100 µM
[50]
  TGI: > 100 µM
[51]
  TGI: > 100 µM
[52]
  TGI: > 100 µM
[53]
  TGI: > 100 µM
[54]
  TGI: > 100 µM
[55]
  TGI: > 100 µM

## C=C(CCOC)CCC1CCCCC/C1=N\N(C)C (stereo unspecified)
[1]
  TGI: > 100 µM
[2]
  TGI: > 100 µM
[3]
  TGI: > 100 µM
[4]
  TGI: > 100 µM
[5]
  TGI: > 100 µM
[6]
  TGI: > 100 µM
[7]
  TGI: > 100 µM
[8]
  TGI: > 100 µM
[9]
  TGI: > 100 µM
[10]
  TGI: > 100 µM
[11]
  TGI: > 100 µM
[12]
  TGI: > 100 µM
[14]
  TGI: > 100 µM
[15]
  TGI: > 100 µM
[56]
  TGI: > 100 µM
[16]
  TGI: > 100 µM
[17]
  TGI: > 100 µM
[18]
  TGI: > 100 µM
[19]
  TGI: > 100 µM
[20]
  TGI: > 100 µM
[21]
  TGI: > 100 µM
[22]
  TGI: > 100 µM
[23]
  TGI: > 100 µM
[24]
  TGI: > 100 µM
[57]
  TGI: > 100 µM
[25]
  TGI: > 100 µM
[26]
  TGI: > 100 µM
[27]
  TGI: > 100 µM
[28]
  TGI: > 100 µM
[29]
  TGI: > 100 µM
[30]
  TGI: > 100 µM
[31]
  TGI: > 100 µM
[32]
  TGI: > 100 µM
[33]
  TGI: > 100 µM
[34]
  TGI: > 100 µM
[35]
  TGI: > 100 µM
[36]
  TGI: > 100 µM
[37]
  TGI: > 100 µM
[38]
  TGI: > 100 µM
[39]
  TGI: > 100 µM
[40]
  TGI: > 100 µM
[41]
  TGI: > 100 µM
[43]
  TGI: > 100 µM
[44]
  TGI: > 100 µM
[58]
  TGI: > 100 µM
[45]
  TGI: > 100 µM
[47]
  TGI: > 100 µM
[48]
  TGI: > 100 µM
[49]
  TGI: > 100 µM
[50]
  TGI: > 100 µM
[51]
  TGI: > 100 µM
[52]
  TGI: > 100 µM
[53]
  TGI: > 100 µM
[54]
  TGI: > 100 µM
[55]
  TGI: > 100 µM

## O=NN1CCNC1Cc1ccccc1 (stereo unspecified)
[1]
  TGI: > 100 µM
[2]
  TGI: > 100 µM
[3]
  TGI: > 100 µM
[4]
  TGI: > 100 µM
[5]
  TGI: > 100 µM
[6]
  TGI: > 100 µM
[7]
  TGI: > 100 µM
[8]
  TGI: > 100 µM
[9]
  TGI: > 100 µM
[10]
  TGI: > 100 µM
[11]
  TGI: > 100 µM
[12]
  TGI: > 100 µM
[13]
  TGI: > 100 µM
[14]
  TGI: > 100 µM
[15]
  TGI: > 100 µM
[56]
  TGI: 72.6 µM
[16]
  TGI: > 100 µM
[17]
  TGI: > 100 µM
[18]
  TGI: > 100 µM
[19]
  TGI: > 100 µM
[20]
  TGI: > 100 µM
[21]
  TGI: > 100 µM
[22]
  TGI: > 100 µM
[23]
  TGI: > 100 µM
[24]
  TGI: > 100 µM
[57]
  TGI: > 100 µM
[25]
  TGI: > 100 µM
[26]
  TGI: > 100 µM
[27]
  TGI: > 100 µM
[28]
  TGI: > 100 µM
[29]
  TGI: > 100 µM
[30]
  TGI: > 100 µM
[31]
  TGI: > 100 µM
[32]
  TGI: > 100 µM
[33]
  TGI: > 100 µM
[34]
  TGI: > 100 µM
[35]
  TGI: > 100 µM
[36]
  TGI: > 100 µM
[37]
  TGI: > 100 µM
[39]
  TGI: > 100 µM
[40]
  TGI: > 100 µM
[42]
  TGI: > 100 µM
[43]
  TGI: > 100 µM
[44]
  TGI: > 100 µM
[58]
  TGI: > 100 µM
[45]
  TGI: > 100 µM
[46]
  TGI: > 100 µM
[47]
  TGI: > 100 µM
[48]
  TGI: > 100 µM
[50]
  TGI: > 100 µM
[51]
  TGI: > 100 µM
[52]
  TGI: > 100 µM
[53]
  TGI: > 100 µM
[54]
  TGI: > 100 µM
[55]
  TGI: > 100 µM
[59]
  TGI: > 100 µM
